Assays:
Assay in all cases: KinomeScan
Assay type in all cases: binding
Conditions in all cases: 1uM
EGFR(G719C) = molecular target: T1, EGFR(G719C) (Homo sapiens, UniProt P00533, G719C)
T1 construct: purchased DiscoveRx KINOMEscan

CAMK4 = molecular target: T2, CAMK4 (Homo sapiens, UniProt Q16566)
T2 construct: purchased DiscoveRx KINOMEscan

MAP3K4 = molecular target: T3, MAP3K4 (Homo sapiens, UniProt Q9Y6R4)
T3 construct: purchased DiscoveRx KINOMEscan

FGFR1 = molecular target: T4, FGFR1 (Homo sapiens, UniProt P11362)
T4 construct: purchased DiscoveRx KINOMEscan

NEK10 = molecular target: T5, NEK10 (Homo sapiens, UniProt Q6ZWH5)
T5 construct: purchased DiscoveRx KINOMEscan

KIT(V559D,T670I) = molecular target: T6, KIT(V559D,T670I) (Homo sapiens, UniProt P10721, T670I/V559D)
T6 construct: purchased DiscoveRx KINOMEscan

TNK2 = molecular target: T7, TNK2 (Homo sapiens, UniProt Q07912)
T7 construct: purchased DiscoveRx KINOMEscan

[1] = molecular target: T8, RSK3(Kin.Dom.2-C-terminal) (Homo sapiens, UniProt Q15349)
T8 construct: RSK3(Kin.Dom.2-C-terminal); purchased DiscoveRx KINOMEscan

MELK = molecular target: T9, MELK (Homo sapiens, UniProt Q14680)
T9 construct: purchased DiscoveRx KINOMEscan

NEK2 = molecular target: T10, NEK2 (Homo sapiens, UniProt P51955)
T10 construct: purchased DiscoveRx KINOMEscan

INSRR = molecular target: T11, INSRR (Homo sapiens, UniProt P14616)
T11 construct: purchased DiscoveRx KINOMEscan

EGFR(T790M) = molecular target: T12, EGFR(T790M) (Homo sapiens, UniProt P00533, T790M)
T12 construct: purchased DiscoveRx KINOMEscan

CAMKK2 = molecular target: T13, CAMKK2 (Homo sapiens, UniProt Q96RR4)
T13 construct: purchased DiscoveRx KINOMEscan

RIOK2 = molecular target: T14, RIOK2 (Homo sapiens, UniProt Q9BVS4)
T14 construct: purchased DiscoveRx KINOMEscan

SRPK1 = molecular target: T15, SRPK1 (Homo sapiens, UniProt Q96SB4)
T15 construct: purchased DiscoveRx KINOMEscan

GRK7 = molecular target: T16, GRK7 (Homo sapiens, UniProt Q8WTQ7)
T16 construct: purchased DiscoveRx KINOMEscan

PIK3CG = molecular target: T17, PIK3CG (Homo sapiens, UniProt P48736)
T17 construct: purchased DiscoveRx KINOMEscan

CSNK1G1 = molecular target: T18, CSNK1G1 (Homo sapiens, UniProt Q9HCP0)
T18 construct: purchased DiscoveRx KINOMEscan

[2] = molecular target: T19, ABL1(T315I)-nonphosphorylated (Homo sapiens, UniProt P00519, T315I)
T19 construct: purchased DiscoveRx KINOMEscan

DYRK1B = molecular target: T20, DYRK1B (Homo sapiens, UniProt Q9Y463)
T20 construct: purchased DiscoveRx KINOMEscan

MEK4 = molecular target: T21, MEK4 (Homo sapiens, UniProt P45985)
T21 construct: purchased DiscoveRx KINOMEscan

FLT3 = molecular target: T22, FLT3 (Homo sapiens, UniProt P36888)
T22 construct: purchased DiscoveRx KINOMEscan

PIK3CA(E545K) = molecular target: T23, PIK3CA(E545K) (Homo sapiens, UniProt P42336, E545K)
T23 construct: purchased DiscoveRx KINOMEscan

CLK4 = molecular target: T24, CLK4 (Homo sapiens, UniProt Q9HAZ1)
T24 construct: purchased DiscoveRx KINOMEscan

NEK4 = molecular target: T25, NEK4 (Homo sapiens, UniProt P51957)
T25 construct: purchased DiscoveRx KINOMEscan

HUNK = molecular target: T26, HUNK (Homo sapiens, UniProt P57058)
T26 construct: purchased DiscoveRx KINOMEscan

ERK3 = molecular target: T27, ERK3 (Homo sapiens, UniProt Q16659)
T27 construct: purchased DiscoveRx KINOMEscan

TGFBR1 = molecular target: T28, TGFBR1 (Homo sapiens, UniProt P36897)
T28 construct: purchased DiscoveRx KINOMEscan

PRKCE = molecular target: T29, PRKCE (Homo sapiens, UniProt Q02156)
T29 construct: purchased DiscoveRx KINOMEscan

PAK2 = molecular target: T30, PAK2 (Homo sapiens, UniProt Q13177)
T30 construct: purchased DiscoveRx KINOMEscan

ERK2 = molecular target: T31, ERK2 (Homo sapiens, UniProt P28482)
T31 construct: purchased DiscoveRx KINOMEscan

[3] = molecular target: T32, RSK4(Kin.Dom.2-C-terminal) (Homo sapiens, UniProt Q9UK32)
T32 construct: RSK4(Kin.Dom.2-C-terminal); purchased DiscoveRx KINOMEscan

IRAK3 = molecular target: T33, IRAK3 (Homo sapiens, UniProt Q9Y616)
T33 construct: purchased DiscoveRx KINOMEscan

CSNK1G3 = molecular target: T34, CSNK1G3 (Homo sapiens, UniProt Q9Y6M4)
T34 construct: purchased DiscoveRx KINOMEscan

PRKD1 = molecular target: T35, PRKD1 (Homo sapiens, UniProt Q15139)
T35 construct: purchased DiscoveRx KINOMEscan

CSF1R-autoinhibited = molecular target: T36, CSF1R-autoinhibited (Homo sapiens, UniProt P07333)
T36 construct: purchased DiscoveRx KINOMEscan

LIMK2 = molecular target: T37, LIMK2 (Homo sapiens, UniProt P53671)
T37 construct: purchased DiscoveRx KINOMEscan

PIM1 = molecular target: T38, PIM1 (Homo sapiens, UniProt P11309)
T38 construct: purchased DiscoveRx KINOMEscan

EPHB2 = molecular target: T39, EPHB2 (Homo sapiens, UniProt P29323)
T39 construct: purchased DiscoveRx KINOMEscan

MST2 = molecular target: T40, MST2 (Homo sapiens, UniProt Q13188)
T40 construct: purchased DiscoveRx KINOMEscan

RAF1 = molecular target: T41, RAF1 (Homo sapiens, UniProt P04049)
T41 construct: purchased DiscoveRx KINOMEscan

PIK3CD = molecular target: T42, PIK3CD (Homo sapiens, UniProt O00329)
T42 construct: purchased DiscoveRx KINOMEscan

TRKB = molecular target: T43, TRKB (Homo sapiens, UniProt Q16620)
T43 construct: purchased DiscoveRx KINOMEscan

T33 sequence (Q9Y616 whole entry): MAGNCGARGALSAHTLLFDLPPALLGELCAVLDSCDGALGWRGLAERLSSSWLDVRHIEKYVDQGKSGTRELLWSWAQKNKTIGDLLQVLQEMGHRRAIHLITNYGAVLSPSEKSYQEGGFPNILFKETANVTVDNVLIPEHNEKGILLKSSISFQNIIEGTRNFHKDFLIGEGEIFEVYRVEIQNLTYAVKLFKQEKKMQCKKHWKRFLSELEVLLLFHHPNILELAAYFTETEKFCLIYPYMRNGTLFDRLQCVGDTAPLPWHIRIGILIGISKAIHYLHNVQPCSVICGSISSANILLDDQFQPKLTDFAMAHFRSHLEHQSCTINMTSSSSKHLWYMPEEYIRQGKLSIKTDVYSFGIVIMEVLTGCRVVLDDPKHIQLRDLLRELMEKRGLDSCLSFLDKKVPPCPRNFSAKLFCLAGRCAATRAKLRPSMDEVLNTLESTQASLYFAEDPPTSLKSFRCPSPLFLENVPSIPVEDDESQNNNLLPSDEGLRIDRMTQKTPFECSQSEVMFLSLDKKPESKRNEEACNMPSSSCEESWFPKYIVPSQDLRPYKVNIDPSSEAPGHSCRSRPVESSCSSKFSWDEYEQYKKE
T36 sequence (P07333 539-972 limits assumed): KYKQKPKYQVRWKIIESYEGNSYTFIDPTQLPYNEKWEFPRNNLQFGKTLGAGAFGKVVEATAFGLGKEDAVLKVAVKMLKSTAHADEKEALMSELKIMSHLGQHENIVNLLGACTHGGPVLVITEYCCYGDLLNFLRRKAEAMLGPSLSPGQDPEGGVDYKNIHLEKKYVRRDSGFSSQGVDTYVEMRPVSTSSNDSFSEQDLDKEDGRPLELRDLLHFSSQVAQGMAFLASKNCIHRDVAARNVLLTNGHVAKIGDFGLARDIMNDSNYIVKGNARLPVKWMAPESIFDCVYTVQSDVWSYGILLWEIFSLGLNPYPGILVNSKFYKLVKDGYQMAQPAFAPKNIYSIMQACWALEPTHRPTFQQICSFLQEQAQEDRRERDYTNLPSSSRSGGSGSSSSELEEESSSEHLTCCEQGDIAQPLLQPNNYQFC
T24 sequence (Q9HAZ1 whole entry): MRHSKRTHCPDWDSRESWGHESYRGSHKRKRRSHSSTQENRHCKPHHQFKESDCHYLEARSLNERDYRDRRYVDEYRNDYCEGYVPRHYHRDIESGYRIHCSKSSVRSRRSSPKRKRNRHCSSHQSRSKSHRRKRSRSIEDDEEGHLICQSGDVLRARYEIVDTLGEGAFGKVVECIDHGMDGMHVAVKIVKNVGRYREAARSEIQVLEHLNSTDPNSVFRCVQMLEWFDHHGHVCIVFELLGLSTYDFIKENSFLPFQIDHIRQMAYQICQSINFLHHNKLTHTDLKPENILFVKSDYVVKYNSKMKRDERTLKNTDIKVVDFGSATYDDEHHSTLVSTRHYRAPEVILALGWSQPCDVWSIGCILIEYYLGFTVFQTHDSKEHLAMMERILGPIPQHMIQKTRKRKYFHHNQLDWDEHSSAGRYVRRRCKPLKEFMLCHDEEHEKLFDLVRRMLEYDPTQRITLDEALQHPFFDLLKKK
T4 sequence (P11362 22-822): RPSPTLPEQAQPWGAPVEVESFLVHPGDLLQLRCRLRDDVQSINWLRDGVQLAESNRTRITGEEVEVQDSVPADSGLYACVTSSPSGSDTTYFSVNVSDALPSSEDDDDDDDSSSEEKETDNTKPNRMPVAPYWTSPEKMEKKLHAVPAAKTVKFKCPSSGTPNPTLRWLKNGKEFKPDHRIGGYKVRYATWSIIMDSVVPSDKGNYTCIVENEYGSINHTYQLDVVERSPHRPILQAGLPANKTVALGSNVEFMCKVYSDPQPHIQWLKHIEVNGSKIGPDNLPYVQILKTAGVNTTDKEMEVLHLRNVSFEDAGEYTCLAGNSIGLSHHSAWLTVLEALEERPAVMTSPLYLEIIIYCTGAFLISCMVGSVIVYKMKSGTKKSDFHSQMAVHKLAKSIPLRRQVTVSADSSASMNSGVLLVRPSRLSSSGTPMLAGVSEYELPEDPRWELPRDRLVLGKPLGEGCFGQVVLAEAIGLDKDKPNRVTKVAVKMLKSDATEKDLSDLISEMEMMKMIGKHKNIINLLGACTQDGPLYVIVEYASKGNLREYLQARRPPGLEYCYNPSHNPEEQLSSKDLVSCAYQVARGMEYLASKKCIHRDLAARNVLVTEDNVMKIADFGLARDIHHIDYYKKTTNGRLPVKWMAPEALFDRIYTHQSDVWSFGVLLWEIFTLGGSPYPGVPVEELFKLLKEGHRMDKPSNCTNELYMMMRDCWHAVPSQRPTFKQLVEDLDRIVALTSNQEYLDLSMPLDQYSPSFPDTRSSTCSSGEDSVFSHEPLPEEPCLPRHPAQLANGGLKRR
T3 sequence (Q9Y6R4 whole entry): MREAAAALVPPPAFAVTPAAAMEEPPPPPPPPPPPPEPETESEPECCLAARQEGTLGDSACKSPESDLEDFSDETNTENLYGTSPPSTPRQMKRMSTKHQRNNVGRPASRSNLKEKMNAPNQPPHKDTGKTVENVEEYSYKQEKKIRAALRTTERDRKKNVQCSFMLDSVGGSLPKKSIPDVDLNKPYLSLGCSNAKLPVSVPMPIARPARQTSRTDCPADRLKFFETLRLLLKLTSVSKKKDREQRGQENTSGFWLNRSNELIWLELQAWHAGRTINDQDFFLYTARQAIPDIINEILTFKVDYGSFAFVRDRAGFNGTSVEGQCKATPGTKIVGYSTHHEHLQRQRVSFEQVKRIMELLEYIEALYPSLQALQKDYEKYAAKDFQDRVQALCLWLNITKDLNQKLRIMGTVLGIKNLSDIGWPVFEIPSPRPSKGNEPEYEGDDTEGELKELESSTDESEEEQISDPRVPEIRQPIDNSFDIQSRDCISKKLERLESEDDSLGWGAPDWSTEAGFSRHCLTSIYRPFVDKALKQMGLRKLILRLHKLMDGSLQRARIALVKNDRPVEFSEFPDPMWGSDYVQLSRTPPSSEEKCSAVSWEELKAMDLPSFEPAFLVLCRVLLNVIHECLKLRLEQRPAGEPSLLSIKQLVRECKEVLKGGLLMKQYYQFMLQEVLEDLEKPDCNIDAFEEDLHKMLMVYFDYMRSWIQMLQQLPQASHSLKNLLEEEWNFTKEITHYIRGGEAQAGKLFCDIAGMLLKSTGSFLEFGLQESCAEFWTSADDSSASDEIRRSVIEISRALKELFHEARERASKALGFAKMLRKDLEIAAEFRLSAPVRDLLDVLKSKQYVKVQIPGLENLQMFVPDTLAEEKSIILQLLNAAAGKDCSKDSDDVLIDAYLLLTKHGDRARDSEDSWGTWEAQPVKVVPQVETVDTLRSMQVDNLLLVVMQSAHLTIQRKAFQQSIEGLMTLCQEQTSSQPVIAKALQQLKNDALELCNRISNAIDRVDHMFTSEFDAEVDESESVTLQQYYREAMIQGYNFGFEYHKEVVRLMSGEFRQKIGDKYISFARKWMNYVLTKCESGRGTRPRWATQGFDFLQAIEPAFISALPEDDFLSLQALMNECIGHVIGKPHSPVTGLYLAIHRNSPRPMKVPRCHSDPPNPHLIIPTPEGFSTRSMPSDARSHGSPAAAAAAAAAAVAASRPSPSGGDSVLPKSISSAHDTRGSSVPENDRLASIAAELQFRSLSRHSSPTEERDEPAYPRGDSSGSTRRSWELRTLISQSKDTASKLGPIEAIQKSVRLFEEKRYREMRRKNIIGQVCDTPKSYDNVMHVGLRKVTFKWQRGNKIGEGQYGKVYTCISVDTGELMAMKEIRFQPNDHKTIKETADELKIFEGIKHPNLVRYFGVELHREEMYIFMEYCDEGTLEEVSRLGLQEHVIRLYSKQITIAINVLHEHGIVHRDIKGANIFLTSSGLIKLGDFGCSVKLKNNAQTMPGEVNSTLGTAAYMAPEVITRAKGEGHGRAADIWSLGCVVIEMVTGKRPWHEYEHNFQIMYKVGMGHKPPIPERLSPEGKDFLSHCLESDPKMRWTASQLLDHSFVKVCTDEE
T9 sequence (Q14680 whole entry): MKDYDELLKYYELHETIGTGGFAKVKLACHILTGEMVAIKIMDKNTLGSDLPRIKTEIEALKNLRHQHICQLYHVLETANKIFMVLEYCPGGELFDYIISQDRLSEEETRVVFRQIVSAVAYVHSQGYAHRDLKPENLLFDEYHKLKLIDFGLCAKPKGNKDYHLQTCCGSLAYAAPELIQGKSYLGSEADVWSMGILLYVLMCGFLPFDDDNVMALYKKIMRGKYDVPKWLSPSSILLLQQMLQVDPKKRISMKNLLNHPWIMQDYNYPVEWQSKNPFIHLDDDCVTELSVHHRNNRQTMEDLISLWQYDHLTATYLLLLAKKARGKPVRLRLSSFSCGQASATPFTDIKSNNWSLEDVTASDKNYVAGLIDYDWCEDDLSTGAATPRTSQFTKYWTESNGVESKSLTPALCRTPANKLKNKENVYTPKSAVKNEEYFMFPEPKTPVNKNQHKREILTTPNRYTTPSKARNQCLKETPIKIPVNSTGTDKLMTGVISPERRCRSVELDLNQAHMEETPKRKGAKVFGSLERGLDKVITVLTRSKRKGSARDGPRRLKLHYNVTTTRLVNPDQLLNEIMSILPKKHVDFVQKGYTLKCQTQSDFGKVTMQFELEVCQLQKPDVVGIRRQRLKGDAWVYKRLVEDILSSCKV
T32 sequence (Q9UK32 401-745 limits assumed): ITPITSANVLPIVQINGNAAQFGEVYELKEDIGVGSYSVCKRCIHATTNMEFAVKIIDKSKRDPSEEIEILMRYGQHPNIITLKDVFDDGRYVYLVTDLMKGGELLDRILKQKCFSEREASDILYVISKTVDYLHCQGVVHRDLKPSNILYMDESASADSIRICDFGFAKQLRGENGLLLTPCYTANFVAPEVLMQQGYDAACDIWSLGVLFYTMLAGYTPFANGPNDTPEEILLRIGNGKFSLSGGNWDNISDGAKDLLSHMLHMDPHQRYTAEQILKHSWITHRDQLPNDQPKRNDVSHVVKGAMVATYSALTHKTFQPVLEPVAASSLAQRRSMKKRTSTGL

SMILES: Cc1nc(NC(=O)[C@@H](N)C(C)C)sc1-c1cnc(Cl)c(NS(=O)(=O)c2ccccc2)c1 [PI3KD-IN-015]
- KinomeScan EGFR(G719C) (EGFR(G719C)): 100
- KinomeScan CAMK4 (CAMK4): 89
- KinomeScan MAP3K4 (MAP3K4): 100
- KinomeScan FGFR1 (FGFR1): 100
- KinomeScan NEK10 (NEK10): 83
- KinomeScan KIT(V559D,T670I) (KIT(V559D,T670I)): 90
- KinomeScan TNK2 (TNK2): 100
- KinomeScan RSK3(Kin.Dom.2-C-terminal) [1]: 99
- KinomeScan MELK (MELK): 90
- KinomeScan NEK2 (NEK2): 100
- KinomeScan INSRR (INSRR): 97
- KinomeScan EGFR(T790M) (EGFR(T790M)): 70
- KinomeScan CAMKK2 (CAMKK2): 96
- KinomeScan RIOK2 (RIOK2): 72
- KinomeScan SRPK1 (SRPK1): 93
- KinomeScan GRK7 (GRK7): 97
- KinomeScan PIK3CG (PIK3CG): 0.05
- KinomeScan CSNK1G1 (CSNK1G1): 100
- KinomeScan ABL1(T315I)-nonphosphorylated [2]: 100
- KinomeScan DYRK1B (DYRK1B): 100
- KinomeScan MEK4 (MEK4): 100
- KinomeScan FLT3 (FLT3): 100
- KinomeScan PIK3CA(E545K) (PIK3CA(E545K)): 6.4
- KinomeScan CLK4 (CLK4): 100
- KinomeScan NEK4 (NEK4): 98
- KinomeScan HUNK (HUNK): 100
- KinomeScan ERK3 (ERK3): 96
- KinomeScan TGFBR1 (TGFBR1): 97
- KinomeScan PRKCE (PRKCE): 100
- KinomeScan PAK2 (PAK2): 89
- KinomeScan ERK2 (ERK2): 100
- KinomeScan RSK4(Kin.Dom.2-C-terminal) [3]: 99
- KinomeScan IRAK3 (IRAK3): 100
- KinomeScan CSNK1G3 (CSNK1G3): 96
- KinomeScan PRKD1 (PRKD1): 100
- KinomeScan CSF1R-autoinhibited (CSF1R-autoinhibited): 100
- KinomeScan LIMK2 (LIMK2): 100
- KinomeScan PIM1 (PIM1): 100
- KinomeScan EPHB2 (EPHB2): 100
- KinomeScan MST2 (MST2): 87
- KinomeScan RAF1 (RAF1): 100
- KinomeScan PIK3CD (PIK3CD): 0
- KinomeScan TRKB (TRKB): 100
